The values that follow come from patent US20030114383A1, “Calcitonin-like sequence expressed by gonadotropes of the anterior pituitary” (priority 2001, published 2003).

One experiment deals with perifused rat AP cells. The following applies: exogenously added; cited from earlier work.
A further experiment relates to lactotrope. The settings on record: rats; cited from earlier work.
The next experiment deals with GGH3 cells. The experiment is described as follows: Two-tier co-culture of CT transfectants with GGH3 cells: PRL release by RIA. It is filed as cell-based, rat. The following applies: summary statement. How it is done:
Levels of CTI and PRL in the conditioned media of LβT2 cells and CT-transfectants were determined by radioimmunoassay (RIA). The PRL RIA used the reagents provided by the National Institute of Diabetes, Digestive and Kidney diseases (NIDDK), and the assay protocol recommended by the NIDDK was followed. CTI was determined as described previously. All samples from this series of experiments were concurrently run in duplicate in the same RIA. Protein A (IgG Sorb) was used for the separation of bound from free hormone antigen. The experiments were repeated at least three separate times, and data from all the experiments were pooled for statistical analysis.
To further examine the role of pituitary-derived CT in lactotrope function, a two-tier co-culture system was developed where b 1×10^5 LβT2 cells or CT transfectants (CT.U6/A or CT.U6/B) are cultured separately in an upper chamber insert, whereas 2×10^5 GGH3 cells per well (target cells) are cultured in a 12-well plate. […] The conditioned media were analyzed for PRL by RIA. […]
The results on PRL release are expressed as ng PRL released by 100,000 cells over 24 hours. The results on PRL mRNA were digitized, normalized with β-actin mRNA and expressed as normalized densitometric units. […]

Bridges are numbered along the chain shown (N, C = ends). Where no end group is shown, it is not given here.

With “salmon calcitonin (CSNLSTCVLGKLSQELHKLQTYPRTNTGSGTP-NH2; disulfide 1-7) [SCT, calcitonin-like peptide derived from salmon]”, in the experiment with perifused rat AP cells, the “PRL release from perifused rat AP cells” value was “significantly attenuates” and the “Secretion of GH, FSH, LH or TSH from perifused rat AP cells” value was “without altering”. Besides, the “Inhibition of PRL gene transcription and lactotrope cell proliferation” value in the experiment on lactotrope is “potent inhibitor”.

B1: Pit-CT: anterior pituitary-derived peptide with sequence homology to calcitonin; mature peptide SEQ. ID No. 3 and No. 4 (protein)
chain: QDQESPLRKHCLAPSGSPQAELQGTAHQEGIMGFLKFSPFLVVSILLLYQACSLQAVPLRSILGSSPGMATLSEEVRLLAAALVQDYMGMKPRELEQEEEQEAEGSSLDSPRSKRCGNLTTCMLGTYTQDLDLFHTFPQTSIGVEALGGEKGCGQGLGDLPPIPFWQLSSSFSPF
modifications: left off: small tags and cut ends
Take B1: the “Inhibition of prolactin secretion by the pituitary of rats” value in the experiment on GGH3 cells is reported as “very potent inhibitor”.
